Patent publication US8980241B2, “Polymerized cyclic nitroxide radical compound and use thereof” (University of Tsukuba, priority 2008, dated 2015)

Assays:
[1] = Test 4: in-blood retention after vein injection (ESR of blood plasma); conditions: in vivo, mouse, injected in the vein
Method: Each of N-TEMPO-RNP and O-TEMPO-RNP prepared as described above was independently injected in the vein of a different mouse, and after a given time period, laparotomy was performed to carry out blood collection from the heart. After blood collection, centrifugal separation was performed at 6,200 rpm (2000×g) for 10 minutes to obtain blood plasma. When the ESR spectrum of the obtained blood plasma was measured, an ESR signal of each RNP was observed from within the blood. In addition, when the disposition thereof was examined, the half-life was approximately 20 minutes for the former (FIG. 9) and approximately one hour for the latter (FIG. 10).

[2] = system: cerebral ischemia model rats
[3] = system: Cerebral ischemia model rat; experiment: Test 5 (1): treatment of cerebral ischemia model rat; conditions: in vivo
[4] = Test 3: reduction-resistance against ascorbic acid (ESR); format: physicochemical; conditions: 3.6 mM AsA, PBS buffer pH 7.4
Excerpt: AsA, also referred to as vitamin C, is present in general at high concentrations in blood.

[5] = Test 2: reduction-resistance against glutathione (ESR); format: physicochemical; conditions: 10 mM glutathione, pH7.2, one hour after colocalization with GSH
Method: It is known that, in general, while the interior of a cell is a reductive environment with high concentrations (0.5 mM to 10 mM) of glutathione present, on the order of only one over 100 to 1000 of that in the cell is present in blood.

Compound	half-life [1] [s]	average blood pressure at the time of agent administration ([2]; cerebral ischemia model rats, N=20)	neurological symptom score ([2]; score 0-3, N=20)	cell death-protection effect in TTC-stained brain [3]	cell death in TTC-stained brain ([3]; iv)	half-life (ESR signal) [4] [s]	decrease in the intensity of the ESR signal [5] [%]
CC1(C)CC(O)CC(C)(C)N1[O] [Tempol, 4-hydroxy-2,2,6,6-tetramethylpiperidine-1-oxyl]	< 60	decreased significantly	no significant differences	more cell death-protection effect at a given level or greater was obtained than with intravenous administration	more effect than N-TEMPO-RNP was not observed	–	–
2,2,6,6-tetramethylpiperidino oxy radical [TEMPO]	–	–	–	–	–	≤ 20	50
